From a melting point compilation (Tetko et al.; mined from patent text by program, amines drawn as free bases though some values may be those of a salt)

SMILES	melting point
O=C(CCl)Oc1ccccc1O	32 to 35 °C
Cc1cc(-c2cc(C(F)F)n3ncc(C(=O)Nc4cccc(S(N)(=O)=O)c4)c3n2)ccc1C(F)(F)F	252 °C
C=CC1CC2=C(CC=C(OC)C2)C2CCC3(C)C(=CCC3O)C12 (stereo not given)	129 to 136 °C
Cn1ncc2c1-c1c(Oc3ccc(F)cc3)sc(C(N)=O)c1CC2	188 to 189 °C
CCOc1cc2c(cc1OC)C(c1ccc(-c3nnn(CC)n3)cc1)=N[C@H]1CCCC[C@@H]21 (racemic)	167 to 170 °C
N#Cc1cnc2cc(F)c(O)cc2c1Cl	> 250 °C
NC(N)=NC(=O)c1ccc2c(c1)S(=O)(=O)CC2O (stereo not given)	240 to 241 °C
CCN(c1nc(C)cc(C(C)Cn2cnnn2)n1)c1ccc(C(C)C)cc1Br (stereo not given)	127 to 129 °C
Clc1ccc2[nH]c3c(c2c1)CCN1CCCC=C31	114 °C
CCCCCCCCCCCCCCOc1cc(OCCCOc2ccc(O)cc2)cc(C(=O)O)c1	91 to 93 °C
O=C(CC1CCCC1)Nc1ccc2c(c1)C(=O)C(Br)CC2 (stereo not given)	162 to 164 °C
Cc1nc(C(N)=O)c2n1-c1ccc(Cl)cc1C(c1ccccc1)=NC2	335 to 340 °C
CC(=O)N1CCc2cc(S(=O)(=O)n3c(COC(C)(C)C(=O)O)cc4cc(Cl)ccc43)ccc21	142 to 144 °C
Nc1cc2c3c(cc(N)cc3c1)C(=O)N(O)C2=O	329 to 336 °C
CCOC(=O)c1nc(C2CC2)nc(N)c1/C=C/[Si](C)(C)C	99 to 101 °C
COC(=O)CC(=O)COc1cc(O)c2c(c1)OC(c1ccc(OC)c(O)c1)CC2=O (stereo not given)	114 to 118 °C
CC(=O)OCC(=O)C12OCOC1CC1C3CCC4=CC(=O)C=CC4(C)C3(Cl)C(O)CC12C (stereo not given)	244 to 245 °C
CC(C)(C)OC(=O)N1CCN(c2ccc(NC(=O)Nc3nc(C(C)(C)C)cs3)cc2)CC1	123 to 124 °C
O=[N+]([O-])c1cc(Cl)ccc1N1CCc2ccccc21	97 to 99 °C
COc1cccc(CNC(=O)c2nc3scc(-c4cccc(-c5ccc(C(=O)O)cc5)c4)c3c(=O)[nH]2)c1	259 to 260 °C
C=CC(=O)C1C(=O)N(c2ccc(OC)cc2)C1c1ccccc1Cl (stereo not given)	99 to 100 °C
COCCOCC(=O)Nc1c([N+](=O)[O-])cnn1-c1c(Cl)cc(C(F)(F)F)cc1Cl	103 to 105 °C
Cc1ccc(C2c3c(C)c(N4C(=O)CC(c5ccccc5)C4=O)c(C)c(C)c3OC2(C)C)cc1 (stereo not given)	130 to 131 °C
CCCCCc1ccc(C2c3c(C)c(N)c(C)c(C)c3OC2(C)C)cc1 (stereo not given)	67 to 68 °C

SMILES	melting point
CCOC(=O)c1c(CCc2ccc(OC)cc2)oc2ccc(C#N)cc12	135 to 139 °C
CSCc1cc(=O)c2ccccc2o1	77 to 79 °C
COc1ccc(C(=O)N(C(=O)c2ccc(OC)cc2)c2nc3ccc(N(C)C)cc3c(NCc3ccccc3)c2C#N)cc1	156 °C
CC(=O)Oc1cccc2c1C(=O)c1c(O)cccc1C2C(=O)C1CCCCC1 (stereo not given)	154 °C
Cn1cc(C(=O)NCc2ccc(Cl)cc2)c(=O)c2cc(CCCO)cc(OCCO)c21	175 to 179 °C
CCOC(=O)C(Cc1ccc(OCCN2CCC(C)(C)c3cc(C(=NOC)c4ccccc4)ccc32)cc1)Oc1ccc(C(F)(F)F)cc1 (stereo not given)	44 to 46 °C
CN(C)c1ccc2c(c1)OCCC2=O	109 to 120 °C
CNS(=O)(=O)c1cccc(NC(=O)c2cnn3c(C(F)F)cc(-c4ccc(C(F)(F)F)cc4)nc23)c1	255 °C
Cc1ccc(Nc2ccccc2C(=O)O)c([N+](=O)[O-])c1	209 to 213 °C
COc1cc(COc2nn(-c3ccccc3)cc2C(=O)O)ccc1OCc1nc(-c2ccccc2)oc1C	209 to 210 °C
CONC(=O)Nc1ccc(-c2sc3c(c2CNC(C)c2ccccc2)c(=O)n(-c2ccc(F)cn2)c(=O)n3Cc2c(F)cccc2F)cc1 (stereo not given)	128 to 130 °C
Cc1ccc2cccc(OCc3c(Cl)ccc(N4CC(=O)NCC4=O)c3Cl)c2n1	211 to 213 °C
CCNC(=O)c1cc(C)c(C(c2cc(F)ccc2F)S(=O)(=O)c2ccc(F)cc2)cn1 (stereo not given)	191 to 193 °C
CCCc1nn2ncc(C(=O)OCC)c2n1Cc1ccc(-c2ccccc2-c2nc(=O)o[nH]2)cc1	227 to 228 °C
COc1cc2c(c([N+](=O)[O-])c1O)C(=O)c1ccccc1C2=O	296 to 297 °C
O=[N+]([O-])c1cnn(-c2c(Cl)cc(Cl)cc2Cl)c1O	106 to 115 °C
CC(=O)Nc1cccc(-n2nc(C(C)C)c(=O)n(Cc3ccc(Cl)cc3)c2=O)c1	178 °C
CON=C(Cn1nnnc1S)C(=O)O	84 to 86 °C
CCOC(=O)c1ccc(/C=C(\C)c2ccc(OC)c(C(C)(C)C)c2)cc1	71.5 °C
COc1ccc(C(=O)Nc2ccccc2)cc1NS(=O)(=O)c1cc(Cl)cc(Cl)c1	222 to 228 °C
CC(C)(C(=O)O)c1ccc(-c2ccc(Cl)cc2)s1	146 to 148 °C
Cc1sc2c(I)c3ccccc3c(-c3ccc(OS(C)(=O)=O)cc3)c2c1C	212 to 213 °C
O=C(O)Cc1cc2c(c(C(=O)O)c1)NC(C(F)(F)F)CC2 (stereo not given)	195 to 196 °C
COC(=O)C1=C(C)NC(c2cnc(Cl)s2)=NC1c1ccc(F)cc1 (stereo not given)	175 to 178 °C

SMILES	melting point
CC(NC(Nc1cc(C(F)(F)F)cc(C(F)(F)F)c1)=C(C#N)S(=O)(=O)c1ccc(Cl)cc1)C(C)(C)C (stereo not given)	156 to 158 °C
O=C(CCNc1c(C(=O)O)[nH]c2cc(Cl)ccc12)c1ccccc1	250 to 255 °C
COc1nc(SCc2ccc(F)cc2)cnc1NS(=O)(=O)c1cccc(Cl)c1Cl	119 to 120 °C
CC(C)(C#N)c1cc(C#N)cc(Cn2cncn2)c1	90 to 92 °C
CC(C)=CCCC(C)=CCc1c(-c2ccc(O)cc2O)oc2cc(O)cc(O)c2c1=O	94 to 95 °C
CC(C)([C@H](NC(=O)c1ccccc1)C(=O)N[C@@H](Cc1ccccc1)[C@H](O)CN1C[C@H]2CCCC[C@H]2C[C@H]1C(=O)NCc1ccccc1)S(C)(=O)=O	212 to 218 °C
Cn1nc(CBr)cc1C(=O)NCCc1ccccc1	112 to 113 °C
CC1(C(=O)NNc2c(Cl)cc(C(F)(F)F)cc2Cl)CC1(Cl)Cl (stereo not given)	174 to 175 °C
Cc1scc2c1N(C(=O)N1CC3CN(C)CC3C1)c1ccccc1NC2=O (stereo not given)	220 to 222 °C
CCOC(=O)N1CCN(CC2CSC3=C(O2)c2ccccc2C(=O)C3=O)CC1 (stereo not given)	185 to 187 °C
OCC(CO)c1cccc2ccccc12	58 to 60 °C
COc1ccccc1N1CCN(S(=O)(=O)c2ccc([N+](=O)[O-])cc2)CC1	202 to 204 °C
NC(=O)c1c(C(=O)O)cnn1-c1cccc(Cl)c1	223 to 225 °C
O=C1C(=O)c2ccccc2C2=C1SCC1(CCN(C(=O)c3ccco3)CC1)O2	165 °C
BrC(Br)=Cc1ccccc1NCc1ccccc1	93 to 95 °C
O=C(NCc1ccc(Cl)cc1)c1cnc2sc(CO)cc2c1O	205 to 210 °C
CN(C)S(=O)(=O)c1cc(C(=O)O)cc(NCc2ccccc2)c1Oc1ccccc1	205 to 206 °C
CCCC(C)(Oc1ccccc1)C(=O)OC1CC(O)C=C2C=CC(C)C(CCC3CC(O)CC(=O)O3)C21 (mixture of isomers)	151 to 153 °C
CCCNC(=O)c1cnc2c(C)cccn2c1=O	138 to 140 °C
Cn1cc(-c2ccccc2)c(=S)c(-c2ccccc2)n1	122 to 123 °C
COc1ccc(C=O)cc1I	104 to 107 °C
Oc1ccc(Nc2ncc3ncc(-c4cccc(O)c4)cc3n2)cc1	> 268 °C
COc1ccc([C@@H]2Sc3ccccc3N(CCN(C)C)C(=O)[C@@H]2OC(=O)Nc2ccccc2)cc1 (relative stereo)	106 to 108 °C
Cc1nc(C)c(C(=O)Nc2cc(Oc3ccc4nc(NC(=O)C5CC5)cn4n3)ccc2F)o1	202 °C

SMILES	melting point
COc1ccc(-n2nc(C(=O)c3ccccc3)cc2-c2ccc(C)cc2)cc1	138 to 139 °C
Cc1cc(-c2ccc(S(N)(=O)=O)cc2)n(-c2ccc(F)cc2)c1Cl	119 to 120 °C
COCOc1ccccc1-c1cc(-c2cccc([N+](=O)[O-])c2)c(C#N)c(N)n1	169 to 171 °C
COc1cc(NS(=O)(=O)c2ccc(C)cc2)cc(OC)c1	103 to 104 °C
O=C(O)c1cccc(Oc2cccc(C(F)(F)F)c2)n1	47 to 49 °C
CCOC(=O)C(N)C=C(CCCCCCN)CP(=O)(O)O (stereo not given)	194 °C
FC(F)(F)c1ccc(-c2ccc3ccn(Cc4ccccc4)c3c2)cc1	83 to 85 °C
O=C1CCC(=O)N1CCS	45 °C
O=C(Cl)N1CC(Oc2ccccc2Cl)C1	80 to 82 °C
CS(=O)CCCn1c(=N)sc2cc(OC(F)(F)F)ccc21 (racemic)	114 °C
N[C@H](C(=O)O)c1ccc(OCCOC2CCCCC2)cc1	219 to 220 °C
CCCc1cc(C(O)=S)cc(N)c1Cc1ccccc1	151 to 152 °C
O=C(OCCN1CCN(c2cccc(C(F)(F)F)c2)CC1)c1sccc1Nc1ccnc2cc(Cl)ccc12	80 °C
CON(C(=O)C1=C(O)C(=O)N(C)C1)C(C)c1ccc(F)cc1 (stereo not given)	136 to 138 °C
Cc1nc(Oc2ccc(Cl)cc2)c2ccccc2c1CC(=O)O	192 to 195 °C
O=C(Nc1ccc(N2CC3CCC3C2)nc1)c1cc2cc(C(F)(F)F)cnc2n1Cc1cccc(F)c1 (stereo not given)	172 to 174 °C
CC1(c2ccc(Br)cc2)Cc2cc(OCC(=O)O)c(Cl)c(Cl)c2C1=O (stereo not given)	171 to 172 °C
C#CCN(C(CCn1c(=O)[nH]cc(C(F)(F)F)c1=O)C(=O)NO)S(=O)(=O)c1ccc(Oc2ccccc2)cc1 (stereo not given)	170 to 171 °C
CCCCCCCCCCCCCCCCCNC(=O)OCC(CO)Oc1cc(C)on1 (stereo not given)	77 to 79 °C
NCCc1ccc(N2CCN(c3ccc(CC(=O)O)cc3)C2=O)cc1	> 250 °C
COc1cccc(CC(=O)O)c1OCCc1cn(-c2ccc(C(F)(F)F)cn2)nc1C(C)C	165 to 166 °C
C(#COCC1CCN(Cc2ccccc2)CC1)Cc1ccccc1	120 to 123 °C
Cc1ccc(C(=O)c2c(C)c(C(=O)O)c(CC(=O)O)n2C)cc1	229 to 230 °C
